ChEMBL document CHEMBL4818984, “Kojic acid-natural product conjugates as mushroom tyrosinase inhibitors” (Eur J Med Chem, 2020)
Calls of active or inactive are those of the source. The rule behind the calls is not given here.

Columns and labels:
Tyrosinase [1] = target: T1, Tyrosinase (Agaricus bisporus, UniProt O42713); experiment: Inhibition of mushroom tyrosinase assessed as reduction in dopachrome formation using L-DOPA as substrate by ELISA
T1 sequence (O42713 whole entry): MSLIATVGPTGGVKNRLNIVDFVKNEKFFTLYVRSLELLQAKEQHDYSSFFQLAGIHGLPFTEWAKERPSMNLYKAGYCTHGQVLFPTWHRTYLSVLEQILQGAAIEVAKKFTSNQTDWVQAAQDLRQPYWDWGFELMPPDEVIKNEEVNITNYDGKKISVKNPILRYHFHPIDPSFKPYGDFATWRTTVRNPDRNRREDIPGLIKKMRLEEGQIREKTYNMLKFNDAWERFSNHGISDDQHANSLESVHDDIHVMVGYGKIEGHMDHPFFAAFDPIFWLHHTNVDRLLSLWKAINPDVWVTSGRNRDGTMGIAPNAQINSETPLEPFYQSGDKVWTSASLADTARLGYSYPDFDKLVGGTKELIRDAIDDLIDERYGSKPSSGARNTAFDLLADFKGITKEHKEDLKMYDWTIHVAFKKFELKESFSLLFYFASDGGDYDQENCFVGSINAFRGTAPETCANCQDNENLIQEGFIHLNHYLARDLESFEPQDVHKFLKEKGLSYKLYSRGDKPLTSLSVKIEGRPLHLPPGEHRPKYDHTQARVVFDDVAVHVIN

[2] = Antioxidant activity assessed as DPPH radical scavenging activity at 10 uM; format: functional
Tyrosinase [3] = target: T1, Tyrosinase; experiment: Inhibition of mushroom tyrosinase using L-tyrosine as substrate measured after 30 mins by microplate reader analysis
Tyrosinase [4] = target: T1, Tyrosinase; experiment: Competitive inhibition of mushroom tyrosinase using L-DOPA as substrate by Lineweaver-Burk double reciprocal plot analysis
[5] = target: T2, Tyrosinase (Agaricus bisporus) (UniProt O42713); experiment: Non-competitive inhibition of mushroom tyrosinase using L-DOPA as substrate by Lineweaver-Burk double reciprocal plot analysis
T2 sequence (whole entry): T1 sequence (O42713 whole entry)

B16-F10 [6] = experiment: cells; conditions: Mus musculus
Description: Cytotoxicity against mouse B16-F10 cells assessed as reduction in cell viability by MTT assay

HFF = experiment: cells; conditions: Homo sapiens
Description: Cytotoxicity against human HFF cells assessed as reduction in cell viability by MTT assay

[7] = target: T2, Tyrosinase (Agaricus bisporus); experiment: Potency index, ratio of kojic acid IC50 to compound IC50 for inhibition of mushroom tyrosinase using L-DOPA as substrate by ELISA
Tyrosinase [8] = target: T1, Tyrosinase; experiment: Inhibition of mushroom tyrosinase using L-tyrosine as substrate measured after 15 mins by microplate reader analysis
Tyrosinase [9] = target: T1, Tyrosinase; experiment: Inhibition of mushroom tyrosinase using L-tyrosine as substrate by HPLC analysis
B16-F10 [10] = experiment: Antimelanogenic activity against mouse B16-F10 cells assessed as reduction of melanin content at 5 uM measured after 24 hrs by microplate reader assay; format: functional, cell-based
[11] = target: T2, Tyrosinase (Agaricus bisporus); experiment: Inhibition of mushroom tyrosinase using L-DOPA as substrate at 0.5 uM in presence of 0.005 to 1.2 mM Cu2+ by ELISA
Tyrosinase [12] = target: T3, Tyrosinase (Homo sapiens, UniProt P14679); experiment: Inhibition of tyrosinase (unknown origin)
T3 sequence (P14679 whole entry): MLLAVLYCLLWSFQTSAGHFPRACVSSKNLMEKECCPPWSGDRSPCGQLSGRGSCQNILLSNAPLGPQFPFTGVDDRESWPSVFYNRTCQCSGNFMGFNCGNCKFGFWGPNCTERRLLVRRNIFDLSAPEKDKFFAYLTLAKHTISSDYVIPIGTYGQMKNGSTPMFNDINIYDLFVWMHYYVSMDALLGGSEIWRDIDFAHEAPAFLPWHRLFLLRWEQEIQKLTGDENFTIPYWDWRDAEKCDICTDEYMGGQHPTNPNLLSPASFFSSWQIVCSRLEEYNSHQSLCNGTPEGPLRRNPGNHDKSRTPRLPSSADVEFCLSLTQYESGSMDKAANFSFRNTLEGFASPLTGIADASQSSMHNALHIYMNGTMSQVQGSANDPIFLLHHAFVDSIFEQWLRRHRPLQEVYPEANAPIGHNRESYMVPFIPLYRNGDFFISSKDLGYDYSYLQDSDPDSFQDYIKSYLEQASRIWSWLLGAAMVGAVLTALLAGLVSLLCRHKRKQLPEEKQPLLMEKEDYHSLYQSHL

[13] = compound: O=c1cc(OCc2cn(Cc3cc(=O)c(O)co3)nn2)c2ccccc2o1; experiment: (§1) Mixed-type of inhibition of mushroom tyrosinase assessed as Vmax using L-DOPA as substrate at 0.05 uM measured at 475 nm by Lineweaver-Burk double reciprocal plot analysis (reference value: […] to […] deltaOD/min); conditions: Agaricus bisporus
[14] = compound: Cc1ccc(C(C)C)cc1OCc1cn(Cc2cc(=O)c(O)co2)nn1; experiment: as §1; conditions: Agaricus bisporus
[15] = compound: COc1cc(C(C)=O)ccc1OCc1cn(Cc2cc(=O)c(O)co2)nn1; experiment: as §1; conditions: Agaricus bisporus
[16] = compound: O=c1cc(OCc2cn(Cc3cc(=O)c(O)co3)nn2)c2ccccc2o1; experiment: Mixed-type of inhibition of mushroom tyrosinase assessed as Vmax using L-DOPA as substrate at 0.5 uM measured at 475 nm by Lineweaver-Burk double reciprocal plot analysis (reference value: […] deltaOD/min); conditions: Agaricus bisporus
[17] = compound: O=c1cc(OCc2cn(Cc3cc(=O)c(O)co3)nn2)c2ccccc2o1; experiment: (§2) Mixed-type of inhibition of mushroom tyrosinase assessed as Km using L-DOPA as substrate at 0.1 uM by Lineweaver-Burk double reciprocal plot analysis (reference value: […] to […] mM); conditions: Agaricus bisporus
[18] = compound: Cc1ccc(C(C)C)cc1OCc1cn(Cc2cc(=O)c(O)co2)nn1; experiment: as §2; conditions: Agaricus bisporus
[19] = compound: COc1cc(C(C)=O)ccc1OCc1cn(Cc2cc(=O)c(O)co2)nn1; experiment: as §2; conditions: Agaricus bisporus
[20] = compound: O=c1cc(OCc2cn(Cc3cc(=O)c(O)co3)nn2)c2ccccc2o1; experiment: (§3) Mixed-type of inhibition of mushroom tyrosinase assessed as Km using L-DOPA as substrate at 0.025 uM by Lineweaver-Burk double reciprocal plot analysis (reference value: […] to […] mM); conditions: Agaricus bisporus
[21] = compound: Cc1ccc(C(C)C)cc1OCc1cn(Cc2cc(=O)c(O)co2)nn1; experiment: as §3; conditions: Agaricus bisporus
[22] = compound: COc1cc(C(C)=O)ccc1OCc1cn(Cc2cc(=O)c(O)co2)nn1; experiment: as §3; conditions: Agaricus bisporus
[23] = compound: O=c1cc(OCc2cn(Cc3cc(=O)c(O)co3)nn2)c2ccccc2o1; experiment: (§4) Mixed-type of inhibition of mushroom tyrosinase assessed as Km using L-DOPA as substrate at 0.05 uM by Lineweaver-Burk double reciprocal plot analysis (reference value: […] to […] mM); conditions: Agaricus bisporus
[24] = compound: Cc1ccc(C(C)C)cc1OCc1cn(Cc2cc(=O)c(O)co2)nn1; experiment: as §4; conditions: Agaricus bisporus
[25] = compound: COc1cc(C(C)=O)ccc1OCc1cn(Cc2cc(=O)c(O)co2)nn1; experiment: as §4; conditions: Agaricus bisporus
[26] = compound: O=c1cc(OCc2cn(Cc3cc(=O)c(O)co3)nn2)c2ccccc2o1; experiment: (§5) Mixed-type of inhibition of mushroom tyrosinase assessed as Vmax using L-DOPA as substrate at 0.025 uM measured at 475 nm by Lineweaver-Burk double reciprocal plot analysis (reference value: […] to […] deltaOD/min); conditions: Agaricus bisporus
[27] = compound: Cc1ccc(C(C)C)cc1OCc1cn(Cc2cc(=O)c(O)co2)nn1; experiment: as §5; conditions: Agaricus bisporus
[28] = compound: COc1cc(C(C)=O)ccc1OCc1cn(Cc2cc(=O)c(O)co2)nn1; experiment: as §5; conditions: Agaricus bisporus
[29] = compound: O=c1cc(OCc2cn(Cc3cc(=O)c(O)co3)nn2)c2ccccc2o1; experiment: (§6) Mixed-type of inhibition of mushroom tyrosinase assessed as Vmax using L-DOPA as substrate at 0.1 uM measured at 475 nm by Lineweaver-Burk double reciprocal plot analysis (reference value: […] to […] deltaOD/min); conditions: Agaricus bisporus
[30] = compound: Cc1ccc(C(C)C)cc1OCc1cn(Cc2cc(=O)c(O)co2)nn1; experiment: as §6; conditions: Agaricus bisporus
[31] = compound: COc1cc(C(C)=O)ccc1OCc1cn(Cc2cc(=O)c(O)co2)nn1; experiment: as §6; conditions: Agaricus bisporus

Molecule: COc1ccc(C=O)cc1OCc1cn(Cc2cc(=O)c(O)co2)nn1
- IC50 (Tyrosinase [1]): 1.95 µM
- Activity [2]: inactive

Molecule: COc1cc(C=O)cc(OC)c1OCc1cn(Cc2cc(=O)c(O)co2)nn1
- IC50 (Tyrosinase [1]): 3.75 µM
- Activity [2]: inactive

Molecule: C/C=C/c1ccc(OCc2cn(Cc3cc(=O)c(O)co3)nn2)c(OC)c1
- IC50 (Tyrosinase [1]): 0.52 µM
- Activity [2]: inactive

Molecule: Oc1ccc2c(c1)OCO2
- IC50 (Tyrosinase [3]): 6.7 µM

Molecule: COc1cc(C(C)=O)ccc1OCc1cn(Cc2cc(=O)c(O)co2)nn1
- Ki (Tyrosinase [4]): 0.07 µM
- IC50 (Tyrosinase [1]): 0.03 µM
- Kis [5]: 0.19 µM
- Activity [2]: inactive
- IC50 (B16-F10 [6]): 416 µM
- IC50 (HFF): 213 µM
- Ratio IC50 [7]: 133

Molecule: C=CCc1ccc(OCc2cn(Cc3cc(=O)c(O)co3)nn2)c(OC)c1
- IC50 (Tyrosinase [1]): 1.07 µM
- Activity [2]: inactive

Molecule: CC(=O)c1ccc(OCc2cn(Cc3cc(=O)c(O)co3)nn2)cc1
- IC50 (Tyrosinase [1]): 1.21 µM
- Activity [2]: inactive

Molecule: C=CCc1ccc(O)c(OC)c1 [EUGENOL]
- IC50 (Tyrosinase [8]): 923 µM

Molecule: COc1ccc(C=O)cc1O [ISOVANILLIN]
- IC50 (Tyrosinase [9]): > 500 µM

Molecule: COc1cc(C=O)ccc1O [VANILLIN]
- IC50 (Tyrosinase [8]): 4100 µM

Molecule: COC(=O)c1ccc(OCc2cn(Cc3cc(=O)c(O)co3)nn2)cc1
- IC50 (Tyrosinase [1]): 0.46 µM
- Activity [2]: inactive

Molecule: O=c1cc(Cn2cc(COc3ccc4c(c3)OCO4)nn2)occ1O
- IC50 (Tyrosinase [1]): 0.06 µM
- Activity [2]: inactive
- Ratio IC50 [7]: 133

Molecule: COc1cc(C=O)ccc1OCc1cn(Cc2cc(=O)c(O)co2)nn1
- IC50 (Tyrosinase [1]): 1.99 µM
- Activity [2]: inactive

Molecule: O=c1ccc2ccc(OCc3cn(Cc4cc(=O)c(O)co4)nn3)cc2o1
- IC50 (Tyrosinase [1]): 0.23 µM
- Activity [2]: inactive

Molecule: O=Cc1ccc(OCc2cn(Cc3cc(=O)c(O)co3)nn2)cc1
- IC50 (Tyrosinase [1]): 1.05 µM
- Activity [2]: inactive

Molecule: Cc1ccc(C(C)C)c(OCc2cn(Cc3cc(=O)c(O)co3)nn2)c1
- IC50 (Tyrosinase [1]): 0.69 µM
- Activity [2]: inactive

Molecule: O=c1cc(OCc2cn(Cc3cc(=O)c(O)co3)nn2)c2ccccc2o1
- Ki (Tyrosinase [4]): 0.04 µM
- IC50 (Tyrosinase [1]): 0.02 µM
- Kis [5]: 0.12 µM
- Activity [2]: inactive
- Activity (B16-F10 [10]): Active
- inhibition [11]: inactive
- IC50 (B16-F10 [6]): 143 µM
- IC50 (HFF): 194 µM
- Ratio IC50 [7]: > 460

Molecule: Cc1ccc(C(C)C)cc1OCc1cn(Cc2cc(=O)c(O)co2)nn1
- Ki (Tyrosinase [4]): 0.09 µM
- IC50 (Tyrosinase [1]): 0.07 µM
- Kis [5]: 0.21 µM
- Activity [2]: inactive
- Activity (B16-F10 [10]): Active
- IC50 (B16-F10 [6]): 408 µM
- IC50 (HFF): 193 µM
- Ratio IC50 [7]: 133

Molecule: O=C(O)c1ccc(OCc2cn(Cc3cc(=O)c(O)co3)nn2)cc1
- IC50 (Tyrosinase [1]): 3.13 µM
- Activity [2]: inactive

Molecule: C/C=C/c1ccc(O)c(OC)c1
- IC50 (Tyrosinase [12]): 33.3 µM

B1: Tyrosinase (Agaricus bisporus), O42713 (protein)
chain: T1 sequence (O42713 whole entry)
- Vmax [13]: 0.176 deltaOD/min
- Vmax [14]: 0.219 deltaOD/min
- Vmax [15]: 0.208 deltaOD/min
- Vmax [16]: 0.021 deltaOD/min
- Km [17]: 2250 µM
- Km [18]: 2020 µM
- Km [19]: 2110 µM
- Km [20]: 1710 µM
- Km [21]: 1520 µM
- Km [22]: 1580 µM
- Km [23]: 2020 µM
- Km [24]: 1830 µM
- Km [25]: 1920 µM
- Vmax [26]: 0.21 deltaOD/min
- Vmax [27]: 0.241 deltaOD/min
- Vmax [28]: 0.232 deltaOD/min
- Vmax [29]: 0.122 deltaOD/min
- Vmax [30]: 0.192 deltaOD/min
- Vmax [31]: 0.183 deltaOD/min
